# Data: patent US11312939B2, “Constructs for chimeric antigen receptors” (Carisma Therapeutics Inc., priority 2020, dated 2022)
# How the values were obtained:
# [1] = system: HER2 CAR macrophages co-cultured with HER2+ breast cancer cells (CRL2351); experiment: Cytokine secretion of interferon treated HER2 CAR macrophages in co-culture (MSD); assay type: cell-based, human; conditions: E:T 3:1, supernatant at 48 hours
# Description: Human macrophages were electroporated with 150 nM HER2 CAR mRNA comprising m6AGCap1 and PsU modifications. HER2+ breast cancer cells (CRL2351) were co-cultured with CAR macrophages after the macrophages were transfected with the CAR mRNA at an Effector (CAR macrophage) to Target (cancer cell) ratio of 3:1. Supernatant was collected 48 hours after the cancer cells and macrophages were co-cultured and cytokine levels were measured using a Meso Scale Discovery (MSD) instrument.
# [2] = system: Human macrophages electroporated with HER2 CAR mRNA; experiment: Cytokine treatment of HER2 CAR mRNA macrophages: viability, CAR expression, M1/M2 markers by flow cytometry; assay type: cell-based; conditions: days 2 and 7
# Description: Human macrophages were electroporated with HER2 CAR mRNA comprising m6AGCap1 and PsU modifications. Cells were cultured with cytokines that induce an M1 phenotype such as IFN-alpha, IFN-beta, IFN-gamma, IFN-gamma plus lipopolysaccharide (LPS), TNF-alpha, IL-6 or a STING ligand (STING-L) for up to 48 hours and then cytokines were washed off and fresh media was added. CAR expression and M1 marker expression were measured on days 2 and 7 after transfection. Fluorescent labeled HER2+ breast cancer cells (CRL2351) were co-cultured with HER2 CAR macrophages two days after the macrophages were transfected. Cancer cell growth was monitored via its fluorescence on an Incucyte® live imaging microscope every four hours. The Effector (CAR macrophage) to Target (cancer cell) ratio was 5:1.
# Five different mRNA modifications were also tested to determine if interferon treatment differentially affected macrophages transfected with mRNA comprising different modifications. Human macrophages were electroporated with HER2 CAR mRNA comprising different mRNA modifications. CAR expression and M1 markers were detected by Flow Cytometry (Attune) on day four after electroporation. Day 4 CAR macrophage cells were then co-cultured with a Nuc-Light labeled, HER2+ breast cancer cell line (CRL2351) at an Effector (CAR macrophage) to Target (cancer cell) ratio of 5:1. Cancer cell growth was monitored via its fluorescence on an Incucyte® live imaging microscope every four hours.
# Human macrophages were electroporated with 300 nM CAR mRNA comprising m6AGCap1 and PsU modifications. Cells were cultured with 20 ng/mL IFNs for 24 hours and then the cells were washed to remove cytokines. CAR expression was detected by Flow Cytometry (Attune) on day 2 after transfection. Cells were then co-cultured with a Nuc-Light labeled, HER2+ breast cancer cell line (CRL2351) at the Effector to Target ratio of 3:1. Cancer cell growth was monitored via its fluorescence on an Incucyte® live imaging microscope. CAR expression and M1 markers in macrophages were detected by Flow Cytometry (Attune) on day 7 after transfection.
# [3] = system: Human macrophages transfected with mCherry mRNA; experiment: mCherry mRNA expression in transfected macrophages (Incucyte); assay type: cell-based; conditions: cultured one day with different doses
# Description: Human macrophages were transfected with mCherry mRNA comprising m6AGCap1 and PsU or N1 mPsU modifications and were then cultured for one day with different doses of IFN-γ. mCherry expression was monitored on an Incucyte® live imaging microscope.
# In order to determine whether an RNaseL inhibitor could rescue IFN-γ-induced instability of transfected mRNA, human macrophages were treated with 1 μM sunitinib (an RNaseL inhibitor) two hours prior to the transfection of mCherry mRNA comprising m6AGCap1 and PsU modifications. Transfected cells were then cultured for one day with different dosages of IFN-γ. mCherry expression was monitored on an Incucyte® live imaging microscope.
# The effect of another RNaseL inhibitor (RLI or ABCE1) was also tested to further validate the concept. Human macrophages were co-transfected with mRNA encoding mCherry comprising m6AGCap 1 and PsU modifications and with mRNA encoding ABCE1.
# [4] = system: CRL-2351 cells expressing nuclear GFP; experiment: Priming of CAR macrophages with plate-coated agonists, tumor cell killing; assay type: cell-based; conditions: plate-coated protein, 3 h priming
# Description: (§1) To generate Her2-Zeta CAR expressing macrophages, primary human macrophages were suspended in EP buffer (MaxCyte) containing 300 nM mRNA (TriLink) at a concentration of 90×10^6 cells/mL. 100 μL of cell mixture was added to an electroporation cassette (OC100×2; MaxCyte) and electroporated using the Experimental T cell 1 setting. Cells were removed from the cassette, plated in 3 mL of TexMACS media (Miltenyi Biotech) containing 20% FBS (Gibco) on UpCell plates (Thermo Scientific), and incubated overnight at 37 C and 5% CO2.
# (§2) Recombinant CD40 ligand (Peprotech), 4-1BB ligand (Enzo Life Sciences), and 4-1BB receptor (Peprotech) were resuspended in molecular grade water to a stock concentration of 100 μg/mL. Stock solution was then used to create working solutions in PBS ranging from 2-0.002 μg/mL. 100 uL of working solution was added to wells in a 96-well plate and left at room temperature for 4 h.
# Plates were removed from the incubator and left at room temperature for 30 min. Cells were detached from plate, counted using the NC-200 automated cell counter (Chemomtech), and re-suspended in TexMACS media with 10% FBS. […] Cell lysis was detected using Incucyte® analysis (Essen Bioscience). Tumor cell death was calculated by integrated GFP intensity per well relative to time 0.
# [5] = system: Her2-Zeta CAR expressing macrophages; experiment: Priming of CAR macrophages with plate-coated agonists, M1 and M2 surface markers; assay type: cell-based, human; conditions: plate-coated protein, 3 days
# Description: as §1, §2
# For detection of cell surface proteins, macrophages were plated onto wells coated with agonist molecules in a final volume of 200 uL TexMACS media+10% FBS+10 ng/mL GM-CSF and incubated for 3 days at 37 C and 5% CO2. Cells were incubated in 300 μL Accutase (Sigma) for 30 min and transferred to 96-well round bottom plate for staining. Cells were incubated in FACS buffer containing 20 μg/mL Her2-His for 20 min at RT, followed by incubation in Human TruStain FcX for 10 min at RT. […]
Molecule,"secretion of IL-6, IL-8 and TNFα from macrophages [1]",M1 phenotype based on CD86 expression [2],M2 markers based on CD163 expression [2],mCherry mRNA expression [3],tumor killing ability of macrophages and CAR macrophages [4],M1 phenotype of mRNA CAR macrophages (M1 and M2 markers) [5]
IFN-α,"increased secretion of the cytokines IL-6, IL-8 and TNFα",induction of an M1 phenotype,reduction of M2 markers,,,
IFN-γ: interferon cytokine that induces an M1 phenotype,"increased secretion of the cytokines IL-6, IL-8 and TNFα",induction of an M1 phenotype,reduction of M2 markers,reduced mCherry mRNA expression,,
"CD40L: Recombinant CD40 ligand (Peprotech), CD40 agonist (protein, UniProt P29965 113-261, looked up) CD40 ligand, soluble form: MQKGDQNPQIAAHVISEASSKTTSVLQWAEKGYYTMSNNLVTLENGKQLTVKRQGLYYIYAQVTFCSNREASSQAPFIASLCLKSPGRFERILLRAANTHSSAKPCGQQSIHLGGVFELQPGASVFVNVTDPSQVSHGTGFTSFGLLKL",,,,,significantly improved the tumor killing ability,induced an M1 phenotype
